Data on ten compounds can be found in US20240269139A1, “COMPOUNDS FOR TARGETED PROTEIN DEGRADATION OF KINASES” (DANA-FARBER CANCER INSTITUTE, INC., priority 2020, published 2024).

Molecules are shown by their SMILES. Like-named read-outs stand apart in the source and are kept apart here.

Format in all cases: cell-based
Assay [1] concerns the target T1, protein kinases (human kinome) (Homo sapiens, UniProt Q9H8X2).
T1 sequence (Q9H8X2 1-491): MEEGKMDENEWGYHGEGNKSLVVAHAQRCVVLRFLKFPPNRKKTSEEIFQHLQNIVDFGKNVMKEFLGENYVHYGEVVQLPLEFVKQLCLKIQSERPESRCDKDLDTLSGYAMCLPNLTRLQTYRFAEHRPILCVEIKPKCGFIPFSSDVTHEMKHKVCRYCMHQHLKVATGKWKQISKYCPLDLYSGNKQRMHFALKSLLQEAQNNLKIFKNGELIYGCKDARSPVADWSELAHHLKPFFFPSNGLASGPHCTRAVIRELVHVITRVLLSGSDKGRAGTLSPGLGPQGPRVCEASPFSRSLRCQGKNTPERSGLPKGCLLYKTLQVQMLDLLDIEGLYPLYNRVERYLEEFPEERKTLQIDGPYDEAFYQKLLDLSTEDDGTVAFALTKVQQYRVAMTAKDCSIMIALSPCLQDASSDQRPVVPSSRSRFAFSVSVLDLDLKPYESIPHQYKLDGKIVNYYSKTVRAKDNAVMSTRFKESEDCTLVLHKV
Particulars: IPPK (Q9H8X2).

Assay [2] has as its target T2, protein kinases (human kinome) (Homo sapiens, UniProt Q08881).
T2 sequence (Q08881 1-620): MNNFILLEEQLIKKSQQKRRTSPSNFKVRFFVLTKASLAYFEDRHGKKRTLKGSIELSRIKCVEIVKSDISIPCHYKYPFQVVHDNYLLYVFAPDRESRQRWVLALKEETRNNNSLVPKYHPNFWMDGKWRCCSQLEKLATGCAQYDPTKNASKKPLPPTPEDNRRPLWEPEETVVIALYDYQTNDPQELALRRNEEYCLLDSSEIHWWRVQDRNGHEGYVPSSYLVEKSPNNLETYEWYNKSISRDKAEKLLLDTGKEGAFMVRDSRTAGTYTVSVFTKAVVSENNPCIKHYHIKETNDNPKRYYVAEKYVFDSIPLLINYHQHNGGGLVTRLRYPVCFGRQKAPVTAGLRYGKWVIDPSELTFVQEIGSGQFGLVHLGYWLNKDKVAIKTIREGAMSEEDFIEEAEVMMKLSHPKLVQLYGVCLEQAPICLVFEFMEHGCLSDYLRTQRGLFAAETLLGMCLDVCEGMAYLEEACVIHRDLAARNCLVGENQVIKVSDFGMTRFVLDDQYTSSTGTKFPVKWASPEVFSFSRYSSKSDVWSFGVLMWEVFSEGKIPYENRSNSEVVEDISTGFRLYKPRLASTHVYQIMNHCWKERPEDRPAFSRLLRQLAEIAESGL
The settings on record: for logFC: ITK (Q08881) protein abundance, degrader vs DMSO, down.

Assay [3] deals with protein kinases (human kinome) (Homo sapiens, UniProt Q9BVS4). Particulars: RIOK2 Q9BVS4.
protein kinases (human kinome) (Homo sapiens, UniProt Q9BVS4), sequence (Q9BVS4 whole entry): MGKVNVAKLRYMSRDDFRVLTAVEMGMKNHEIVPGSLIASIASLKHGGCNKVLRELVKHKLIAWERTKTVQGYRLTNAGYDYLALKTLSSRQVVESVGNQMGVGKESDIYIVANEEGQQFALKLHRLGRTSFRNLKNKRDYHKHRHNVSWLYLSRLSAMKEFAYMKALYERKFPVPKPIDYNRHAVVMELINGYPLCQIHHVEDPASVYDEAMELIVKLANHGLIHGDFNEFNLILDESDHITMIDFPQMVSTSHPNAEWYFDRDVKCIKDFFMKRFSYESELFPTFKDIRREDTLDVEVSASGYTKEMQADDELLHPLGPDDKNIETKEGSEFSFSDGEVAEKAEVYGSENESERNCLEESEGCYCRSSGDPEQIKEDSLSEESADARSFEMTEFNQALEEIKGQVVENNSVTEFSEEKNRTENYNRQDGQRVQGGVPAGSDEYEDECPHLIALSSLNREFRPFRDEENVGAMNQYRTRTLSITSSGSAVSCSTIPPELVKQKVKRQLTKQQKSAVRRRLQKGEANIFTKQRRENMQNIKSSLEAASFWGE
The target in assay [4] is protein kinases (human kinome) (Homo sapiens, UniProt P49137).
protein kinases (human kinome) (Homo sapiens, UniProt P49137), sequence (P49137 whole entry): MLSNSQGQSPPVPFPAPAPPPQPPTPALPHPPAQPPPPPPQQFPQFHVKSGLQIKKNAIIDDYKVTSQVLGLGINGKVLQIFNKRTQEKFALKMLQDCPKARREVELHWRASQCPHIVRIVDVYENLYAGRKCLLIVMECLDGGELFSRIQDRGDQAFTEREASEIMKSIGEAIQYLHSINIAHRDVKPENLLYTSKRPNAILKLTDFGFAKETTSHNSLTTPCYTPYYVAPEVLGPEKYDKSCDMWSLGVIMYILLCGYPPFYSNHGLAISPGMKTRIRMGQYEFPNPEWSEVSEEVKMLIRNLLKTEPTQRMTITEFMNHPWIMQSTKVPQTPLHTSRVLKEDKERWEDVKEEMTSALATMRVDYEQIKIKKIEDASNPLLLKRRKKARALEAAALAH
Assay [5] concerns the target protein kinases (human kinome) (Homo sapiens, UniProt Q15208). Particulars: experiment wp146.
Setting [6] is: experiment wp016, direction of change down.
Where [7] appears, read: experiment wp131, direction of change down.
Where [8] appears, read: Accession P49137, experiment wp168, direction down.
[9] abbreviates: MAPKAPK2 (P49137), experiment wp168.

protein kinases (human kinome) (Homo sapiens, UniProt Q15208), sequence (Q15208 whole entry): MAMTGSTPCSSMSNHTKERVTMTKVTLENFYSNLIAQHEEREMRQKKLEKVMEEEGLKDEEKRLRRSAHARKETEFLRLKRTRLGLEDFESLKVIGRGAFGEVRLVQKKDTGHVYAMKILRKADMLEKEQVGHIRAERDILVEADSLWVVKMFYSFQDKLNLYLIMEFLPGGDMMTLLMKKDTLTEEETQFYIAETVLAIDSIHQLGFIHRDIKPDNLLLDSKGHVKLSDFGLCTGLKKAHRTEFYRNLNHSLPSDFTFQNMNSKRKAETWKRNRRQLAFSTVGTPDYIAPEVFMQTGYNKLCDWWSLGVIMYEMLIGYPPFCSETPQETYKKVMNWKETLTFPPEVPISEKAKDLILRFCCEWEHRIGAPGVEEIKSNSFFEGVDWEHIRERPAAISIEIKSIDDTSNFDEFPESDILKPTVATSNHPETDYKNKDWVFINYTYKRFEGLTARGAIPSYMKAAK

Turning to `CC(C)S(=O)(=O)c1ccccc1Nc1nc(Nc2ccc(N3CCN(CCOCCOCCNC(=O)CNc4cccc5c4C(=O)N(C4CCC(=O)NC4=O)C5=O)CC3)cc2)ncc1Cl` (centres unmarked) [TL12.186], the values for the logFC in assay [1] (experiment wp131), in assay [3] (experiment wp131) and in assay [3] (experiment wp137) were −0.6311, −0.9134 and −0.7728, respectively. In addition, the “logFC ITK (Q08881)” value in assay [2] (experiment wp016) is recorded as −2.342; in assay [2] (setting [6]), −2.342; in assay [2] (experiment wp131) it was −2.292; in assay [2] (setting [7]), −2.292; in assay [2] (experiment wp137) it was −1.973; in assay [2] (experiment wp137, direction of change down), −1.973. Besides, the “logFC RIOK2” value in assay [3] (experiment wp131) was −0.9134; in assay [3] (experiment wp137) it was −0.7728.
As for `O=C1CCC(N2C(=O)c3cccc(NCCCCCCCCN4CCC(NC(=O)c5[nH]ncc5NC(=O)c5c(Cl)cccc5Cl)CC4)c3C2=O)C(=O)N1` (centres unmarked) [MFH.5.126.1], in assay [3] (experiment wp076), the logFC is −0.7874 and the “logFC RIOK2” value was −0.7874.
With `Cc1ccc(NC(=O)c2cccc(C(F)(F)F)c2)cc1N1Cc2cnc(Nc3ccc(N4CCN(CCCCC(=O)N[C@H](C(=O)N5C[C@H](O)C[C@H]5C(=O)N[C@@H](C)c5ccc(-c6scnc6C)cc5)C(C)(C)C)CC4)nc3)nc2N(C)C1=O` [DB1113], the “logFC MAPKAPK2” value in assay [4] (setting [8]) and in assay [4] (setting [9]) was −3.201 throughout.
Consider `Cc1cc(Nc2ncc(Br)c(Nc3cccc(F)c3C(N)=O)n2)ccc1S(=O)(=O)NCCOCCOCCOCCOCCNc1cccc2c1C(=O)N(C1CCC(=O)NC1=O)C2=O` (centres unmarked) [TMX.02.174], for which the logFC in assay [5] (STK38 (Q15208)) is recorded as −0.4117. The “logFC of STK38 (Q15208)” value in assay [5] is reported as −0.4117.
On to `CCc1cnn2c(N(Cc3ccc(N)nc3)C(=O)CCOCCOCCOCCNC(=O)CNc3cccc4c3C(=O)N(C3CCC(=O)NC3=O)C4=O)cc(N3CCCC[C@H]3CCO)nc12` (some centres unmarked) [MFH.5.115.2], for which, in assay [3] (experiment wp076), the logFC is −0.8067 and the “logFC RIOK2” value is −0.8067.
Turning to `Cc1ncsc1-c1ccc([C@H](C)NC(=O)[C@@H]2C[C@@H](O)CN2C(=O)[C@@H](NC(=O)CCOCCOCCN2CCN(c3ccc(Nc4ncc(Cl)c(Nc5ccccc5S(=O)(=O)C(C)C)n4)cc3)CC2)C(C)(C)C)cc1` [FMF.06.098.1], the logFC in assay [1] (experiment wp114) was −0.5773. In addition, the “logFC ITK (Q08881)” value is recorded as −0.3557 in assay [2] (Experiment wp108); −0.3557 in assay [2] (experiment wp108, direction of change down); −0.3625 in assay [2] (experiment wp131); −0.3625 in assay [2] (setting [7]).
`Cc1ccc(NC(=O)c2cccc(C(F)(F)F)c2)cc1N1Cc2cnc(Nc3ccc(N4CCN(Cc5cn(CCCCCOc6cccc7c6C(=O)N(C6CCC(=O)NC6=O)C7=O)nn5)CC4)nc3)nc2N(C)C1=O` (centres unmarked) [DB0646, N-(3-(7-((6-(4-((1-(5-((2-(2,6-Dioxopiperidin-3-yl)-1,3-dioxoisoindolin-4-yl)oxy)pentyl)-1H-1,2,3-triazol-4-yl)methyl)piperazin-1-v)pyridin-3-yl)amino)-1-methyl-2-oxo-1,4-dihydropyrimido[4,5-d]pyrimidin-3(2H)-yl)-4-methylphenyl)-3-(trifluoromethyl)benzamide]: the “logFC MAPKAPK2” value in assay [4] (Accession P49137, experiment wp045, direction down) is −0.4334; in assay [4] (Accession P49137, experiment wp105, direction down), −0.4562; in assay [4] (Accession P49137, experiment wp107, direction down) it was −0.3734; in assay [4] (Accession P49137, experiment wp114, direction down), −0.4911; in assay [4] (Accession P49137, experiment wp117, direction down), −0.4333; in assay [4] (Accession P49137, experiment wp152, direction down) it was −0.4223. Moreover, the “logFC MAPKAPK2” value in assay [4] (Accession P49137, experiment wp160, 4 hr, direction down) is reported as −0.3444; in assay [4] (Accession P49137, experiment wp160, 8 hr, direction down), −0.6227; in assay [4] (Accession P49137, experiment wp172, direction down), −0.3294; in assay [4] (MAPKAPK2 (P49137), experiment wp045), −0.4334; in assay [4] (MAPKAPK2 (P49137), experiment wp105), −0.4562; in assay [4] (MAPKAPK2 (P49137), experiment wp107), −0.3734. In addition, the “logFC MAPKAPK2” value in assay [4] (MAPKAPK2 (P49137), experiment wp114) was −0.4911; in assay [4] (MAPKAPK2 (P49137), experiment wp117) it was −0.4333; in assay [4] (MAPKAPK2 (P49137), experiment wp152), −0.4223; in assay [4] (MAPKAPK2 (P49137), experiment wp160, 4 hr), −0.3444; in assay [4] (MAPKAPK2 (P49137), experiment wp160, 8 hr), −0.6227; in assay [4] (MAPKAPK2 (P49137), experiment wp172) it was −0.3294.
As for `Cc1ccc(NC(=O)c2cccc(C(F)(F)F)c2)cc1N1Cc2cnc(Nc3ccc(N4CCN(CCCOc5cccc6c5C(=O)N(C5CCC(=O)NC5=O)C6=O)CC4)nc3)nc2N(C)C1=O` (centres unmarked) [DB0662], the “logFC MAPKAPK2” value in assay [4] (setting [8]) and in assay [4] (setting [9]) was −0.331 in each case.
For `CC(C)S(=O)(=O)c1ccccc1Nc1nc(Nc2ccc(N3CCN(CCOCCNC(=O)CNc4ccc5c(c4)C(=O)N(C4CCC(=O)NC4=O)C5=O)CC3)cc2)ncc1Cl` (centres unmarked) [SK.3.93], the “logFC ITK (Q08881)” value in assay [2] (experiment wp016) and in assay [2] (setting [6]) was −2.136 each time.
As to `CC(C)S(=O)(=O)c1ccccc1Nc1nc(Nc2ccc(N3CCN(CCOCCNC(=O)CNc4cccc5c4C(=O)N(C4CCC(=O)NC4=O)C5=O)CC3)cc2)ncc1Cl` (centres unmarked) [SK.3.91], the logFC in assay [1] (experiment wp103) is on record as −0.4729; in assay [1] (experiment wp107) it was −1.001; in assay [1] (experiment wp114) it was −0.7881; in assay [1] (experiment wp133, 4 hr) it was −0.4816; in assay [2] (2 hr), −0.799; in assay [2] (4 hr) it was −1.783. Further, the logFC in assay [3] (experiment wp016, 1 uM) is recorded as −0.6319; in assay [3] (experiment wp103), −0.8311; in assay [3] (experiment wp105), −0.482; in assay [3] (experiment wp107), −0.7393; in assay [3] (experiment wp133, 4 hr), −0.6476; in assay [3] (experiment wp160, 4 hr), −0.4416. Also, the “logFC ITK (Q08881)” value in assay [2] (Experiment wp103) is given as −1.663; in assay [2] (Experiment wp107), −1.963; in assay [2] (Experiment wp160, 2 hr), −0.799; in assay [2] (experiment wp016), −2.308; in assay [2] (experiment wp016, 1 uM) it was −2.033; in assay [2] (experiment wp016, 1 uM, direction of change down), −2.033. Moreover, the “logFC ITK (Q08881)” value in assay [2] (setting [6]) is recorded as −2.308; in assay [2] (experiment wp103, direction of change down), −1.663; in assay [2] (experiment wp107, direction of change down) it was −1.963; in assay [2] (experiment wp133, 1 hr), −0.3741; in assay [2] (experiment wp133, 1 hr, direction of change down) it was −0.3741; in assay [2] (experiment wp133, 2 hr), −0.8321. For the same compound, the “logFC ITK (Q08881)” value is reported as −0.8321 in assay [2] (experiment wp133, 2 hr, direction of change down); −1.654 in assay [2] (experiment wp133, 4 hr); −1.654 in assay [2] (experiment wp133, 4 hr, direction of change down); −1.783 in assay [2] (experiment wp160, 4 hr). Moreover, the “logFC RIOK2” value in assay [3] (experiment wp016, 1 uM) is reported as −0.6319; in assay [3] (experiment wp103) it was −0.8311; in assay [3] (experiment wp105), −0.482; in assay [3] (experiment wp107), −0.7393; in assay [3] (experiment wp133, 4 hr) it was −0.6476; in assay [3] (experiment wp160, 4 hr) it was −0.4416.
